Experiments:
p300 = molecular target: T1, p300 (Homo sapiens, UniProt Q09472); assay: P300 degradation, HiBit technology in A549 P300 HiBit cells (2 h); type: cell-based; settings: 2 hrs post treatment; for Dmax: A549, A549 P300 HiBit cells; for DC50: A549 P300 HiBit cells
T1 construct: host or cells: A549 P300 HiBit cells
How it was run: (§1)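 Luminescence after lytic HiBiT detection (10 min, room temperature) gave degradation potency and Dmax. Before that, knock-in A549 cells grown overnight in F-12K/10% HI-FBS were exposed to serially diluted compound at 37 °C, 5% CO2 for the assay time stated.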

CBP = molecular target: T2, CBP (Homo sapiens, UniProt Q92793); assay: CBP degradation, HiBit technology in A549 CBP HiBit cells (24 h); type: cell-based; settings: 24 hrs post treatment
T2 construct: host or cells: A549 CBP HiBit cells
How it was run: as §1

T2 sequence (Q92793 whole entry): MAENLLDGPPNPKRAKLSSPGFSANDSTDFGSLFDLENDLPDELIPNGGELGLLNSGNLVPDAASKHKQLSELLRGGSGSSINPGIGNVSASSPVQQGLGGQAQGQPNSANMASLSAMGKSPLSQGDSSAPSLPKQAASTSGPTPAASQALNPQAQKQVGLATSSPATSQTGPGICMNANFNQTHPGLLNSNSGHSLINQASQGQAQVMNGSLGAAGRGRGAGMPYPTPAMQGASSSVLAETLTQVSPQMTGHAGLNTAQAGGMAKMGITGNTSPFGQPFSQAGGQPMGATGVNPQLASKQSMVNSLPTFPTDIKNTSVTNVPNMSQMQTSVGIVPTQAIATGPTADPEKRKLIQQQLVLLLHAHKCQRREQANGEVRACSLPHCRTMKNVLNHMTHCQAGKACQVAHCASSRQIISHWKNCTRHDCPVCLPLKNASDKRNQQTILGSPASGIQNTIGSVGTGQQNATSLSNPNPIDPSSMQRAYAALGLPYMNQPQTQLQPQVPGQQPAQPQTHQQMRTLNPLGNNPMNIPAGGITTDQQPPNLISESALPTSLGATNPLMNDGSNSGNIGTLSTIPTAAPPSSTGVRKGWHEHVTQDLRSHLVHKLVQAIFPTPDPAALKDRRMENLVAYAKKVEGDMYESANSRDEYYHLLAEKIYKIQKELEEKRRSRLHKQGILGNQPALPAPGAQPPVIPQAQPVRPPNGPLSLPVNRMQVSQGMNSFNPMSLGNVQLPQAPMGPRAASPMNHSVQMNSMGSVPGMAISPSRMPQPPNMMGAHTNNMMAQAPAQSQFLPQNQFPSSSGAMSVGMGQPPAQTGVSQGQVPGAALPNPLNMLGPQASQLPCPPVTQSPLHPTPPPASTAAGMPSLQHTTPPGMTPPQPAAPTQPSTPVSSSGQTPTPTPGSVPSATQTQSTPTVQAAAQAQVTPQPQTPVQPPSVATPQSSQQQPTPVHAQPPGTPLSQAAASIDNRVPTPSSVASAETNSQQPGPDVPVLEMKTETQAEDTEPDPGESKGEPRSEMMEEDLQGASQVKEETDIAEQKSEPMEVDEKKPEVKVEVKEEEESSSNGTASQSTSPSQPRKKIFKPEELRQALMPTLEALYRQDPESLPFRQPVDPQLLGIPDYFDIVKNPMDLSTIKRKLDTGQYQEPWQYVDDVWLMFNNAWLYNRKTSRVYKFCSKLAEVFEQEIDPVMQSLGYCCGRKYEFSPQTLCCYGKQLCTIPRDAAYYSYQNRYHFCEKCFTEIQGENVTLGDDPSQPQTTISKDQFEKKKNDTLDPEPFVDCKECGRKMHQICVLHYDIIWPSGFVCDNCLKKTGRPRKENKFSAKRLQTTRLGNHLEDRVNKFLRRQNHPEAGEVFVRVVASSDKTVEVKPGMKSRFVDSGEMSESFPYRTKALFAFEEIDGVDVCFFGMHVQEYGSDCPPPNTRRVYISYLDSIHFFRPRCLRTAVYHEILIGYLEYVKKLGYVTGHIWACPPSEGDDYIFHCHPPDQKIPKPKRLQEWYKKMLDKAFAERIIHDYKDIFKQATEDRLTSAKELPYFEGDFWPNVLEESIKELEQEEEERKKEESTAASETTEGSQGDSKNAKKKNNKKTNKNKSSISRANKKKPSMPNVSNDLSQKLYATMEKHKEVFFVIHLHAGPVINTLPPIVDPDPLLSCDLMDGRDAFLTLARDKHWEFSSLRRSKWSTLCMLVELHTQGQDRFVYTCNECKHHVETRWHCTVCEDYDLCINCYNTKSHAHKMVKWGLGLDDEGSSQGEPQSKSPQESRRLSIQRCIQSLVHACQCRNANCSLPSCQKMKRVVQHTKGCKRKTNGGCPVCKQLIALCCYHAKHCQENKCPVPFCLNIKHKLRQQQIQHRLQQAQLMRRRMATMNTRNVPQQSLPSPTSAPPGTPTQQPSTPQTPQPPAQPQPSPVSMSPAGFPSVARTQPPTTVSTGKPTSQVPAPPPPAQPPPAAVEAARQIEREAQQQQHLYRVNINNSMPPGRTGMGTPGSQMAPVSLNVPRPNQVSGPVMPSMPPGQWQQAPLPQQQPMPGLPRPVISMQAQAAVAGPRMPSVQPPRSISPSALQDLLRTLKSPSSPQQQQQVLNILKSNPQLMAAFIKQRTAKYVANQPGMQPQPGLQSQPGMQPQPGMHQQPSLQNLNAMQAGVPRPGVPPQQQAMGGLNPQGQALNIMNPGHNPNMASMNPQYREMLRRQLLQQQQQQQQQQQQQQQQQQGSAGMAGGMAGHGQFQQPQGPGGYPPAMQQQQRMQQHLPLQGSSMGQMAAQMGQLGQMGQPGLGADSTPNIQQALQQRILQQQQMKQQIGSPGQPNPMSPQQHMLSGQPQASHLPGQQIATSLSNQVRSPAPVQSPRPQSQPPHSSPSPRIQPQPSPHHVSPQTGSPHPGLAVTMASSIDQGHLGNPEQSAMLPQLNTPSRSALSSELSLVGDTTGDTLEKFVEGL
T1 sequence (Q09472 whole entry): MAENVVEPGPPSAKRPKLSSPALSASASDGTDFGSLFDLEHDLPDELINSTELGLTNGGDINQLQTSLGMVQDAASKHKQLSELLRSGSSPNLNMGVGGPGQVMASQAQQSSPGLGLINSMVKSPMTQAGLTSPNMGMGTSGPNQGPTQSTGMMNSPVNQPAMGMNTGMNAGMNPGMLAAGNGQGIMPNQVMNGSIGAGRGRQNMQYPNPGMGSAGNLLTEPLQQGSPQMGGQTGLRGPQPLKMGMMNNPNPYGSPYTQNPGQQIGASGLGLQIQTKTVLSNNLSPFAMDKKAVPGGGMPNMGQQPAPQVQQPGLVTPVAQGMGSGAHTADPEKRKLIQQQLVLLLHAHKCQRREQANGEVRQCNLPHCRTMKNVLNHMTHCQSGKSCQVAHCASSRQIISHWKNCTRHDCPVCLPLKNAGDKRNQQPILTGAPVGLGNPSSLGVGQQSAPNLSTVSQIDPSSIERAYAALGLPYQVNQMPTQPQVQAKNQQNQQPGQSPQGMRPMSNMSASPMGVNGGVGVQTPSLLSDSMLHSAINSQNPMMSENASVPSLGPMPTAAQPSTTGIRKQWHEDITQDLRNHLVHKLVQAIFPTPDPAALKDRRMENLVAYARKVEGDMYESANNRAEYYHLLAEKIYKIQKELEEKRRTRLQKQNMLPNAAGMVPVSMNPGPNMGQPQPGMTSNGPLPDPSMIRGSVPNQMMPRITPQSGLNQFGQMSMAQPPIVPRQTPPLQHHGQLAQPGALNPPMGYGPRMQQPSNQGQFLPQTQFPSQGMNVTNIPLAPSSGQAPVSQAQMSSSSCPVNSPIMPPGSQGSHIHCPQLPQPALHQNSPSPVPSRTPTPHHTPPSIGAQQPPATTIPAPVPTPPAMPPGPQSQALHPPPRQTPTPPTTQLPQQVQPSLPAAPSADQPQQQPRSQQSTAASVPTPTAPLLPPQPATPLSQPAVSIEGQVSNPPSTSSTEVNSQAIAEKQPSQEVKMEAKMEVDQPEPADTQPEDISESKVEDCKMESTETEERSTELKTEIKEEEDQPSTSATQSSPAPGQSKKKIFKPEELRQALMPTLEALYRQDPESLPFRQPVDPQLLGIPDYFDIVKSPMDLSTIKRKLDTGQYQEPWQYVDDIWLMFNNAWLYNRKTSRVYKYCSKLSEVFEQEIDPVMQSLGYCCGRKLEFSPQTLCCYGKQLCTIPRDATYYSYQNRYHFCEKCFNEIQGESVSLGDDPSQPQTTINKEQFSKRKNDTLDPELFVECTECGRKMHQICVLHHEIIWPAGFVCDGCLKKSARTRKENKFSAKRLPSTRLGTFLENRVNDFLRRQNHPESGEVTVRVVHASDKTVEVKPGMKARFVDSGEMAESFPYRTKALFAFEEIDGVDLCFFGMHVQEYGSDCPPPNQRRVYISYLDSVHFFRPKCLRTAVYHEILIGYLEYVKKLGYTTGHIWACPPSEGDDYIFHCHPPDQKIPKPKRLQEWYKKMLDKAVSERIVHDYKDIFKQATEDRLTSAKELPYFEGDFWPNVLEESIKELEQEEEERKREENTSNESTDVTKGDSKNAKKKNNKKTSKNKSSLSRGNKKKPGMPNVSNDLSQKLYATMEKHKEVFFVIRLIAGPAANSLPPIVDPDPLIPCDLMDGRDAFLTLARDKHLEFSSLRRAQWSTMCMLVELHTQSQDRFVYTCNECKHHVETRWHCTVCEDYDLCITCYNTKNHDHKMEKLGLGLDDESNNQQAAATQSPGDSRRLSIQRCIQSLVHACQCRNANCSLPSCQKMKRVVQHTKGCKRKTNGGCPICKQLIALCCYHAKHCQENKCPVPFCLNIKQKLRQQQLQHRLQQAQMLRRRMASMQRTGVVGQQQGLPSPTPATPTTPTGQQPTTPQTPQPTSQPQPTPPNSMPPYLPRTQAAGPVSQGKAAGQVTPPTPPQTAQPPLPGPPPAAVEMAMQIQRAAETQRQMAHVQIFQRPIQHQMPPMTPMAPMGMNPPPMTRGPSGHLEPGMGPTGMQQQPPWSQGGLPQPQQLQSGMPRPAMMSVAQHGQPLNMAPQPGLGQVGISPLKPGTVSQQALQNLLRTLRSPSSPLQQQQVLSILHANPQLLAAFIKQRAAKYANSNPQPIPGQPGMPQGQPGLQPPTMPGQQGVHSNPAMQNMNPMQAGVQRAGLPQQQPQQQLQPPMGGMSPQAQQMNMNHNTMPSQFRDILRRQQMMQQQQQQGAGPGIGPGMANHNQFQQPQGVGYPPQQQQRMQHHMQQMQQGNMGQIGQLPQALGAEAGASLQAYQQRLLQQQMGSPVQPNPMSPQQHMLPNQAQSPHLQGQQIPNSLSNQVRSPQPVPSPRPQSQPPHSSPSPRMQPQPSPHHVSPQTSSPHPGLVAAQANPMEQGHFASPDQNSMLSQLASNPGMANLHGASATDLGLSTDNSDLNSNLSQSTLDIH

Row | Dmax (p300) | DC50 (p300) | DC50 (CBP) | Dmax (CBP) | Structure (SMILES)
1 | > 80% | 1 to 9.9 nM | 10 to 99 nM | 40 to 59% | CN1Cc2c(-c3cccc4cc(-c5ccc(C(=O)NCC#Cc6ccc7cnn(C8CCC(=O)NC8=O)c7c6)nc5)ncc34)cc(C(C)(F)F)cc2N(C)C1=O (stereo not drawn) [Example B9, 5-(8-(7-(1,1-Difluoroethyl)-1,3-dimethyl-2-oxo-1,2,3,4-tetrahydroquinazolin-5-yl)isoquinolin-3-yl)-N-(3-(1-(2,6-dioxopiperidin-3-yl)-1H-indazol-6-yl)prop-2-yn-1-yl)picolinamide]
2 | > 80% | 1 to 9.9 nM | 100 to 999 nM | 20 to 39% | CCc1cc(N(C)c2ccc(-c3cnc(C(=O)NCC#Cc4cccc(NC5CCC(=O)NC5=O)c4)c(C)c3)nc2)c2cc(C)c(=O)n(C)c2c1 (stereo not drawn) [Example B16, N-(3-(3-((2,6-Dioxopiperidin-3-yl)amino)phenyl)prop-2-yn-1-yl)-5-((7-ethyl-1,3-dimethyl-2-oxo-1,2-dihydroquinolin-5-yl)(methyl)amino)-5′-methyl-[2,3′-bipyridine]-6′-carboxamide]
3 | > 80% | 1 to 9.9 nM | > 1000 nM | < 20% | COc1nc(-c2cnc(C(=O)NCC#Cc3cc4c(C5CCC(=O)NC5=O)cccc4o3)c(C)c2)ncc1Nc1cc(C2CCOCC2)cc2c1cc(C)c(=O)n2C (stereo not drawn) [Example B20, 5-(5-((1,3-dimethyl-2-oxo-7-(tetrahydro-2H-pyran-4-yl)-1,2-dihydroquinolin-5-yl)amino)-4-methoxypyrimidin-2-yl)-N-(3-(4-(2,6-dioxopiperidin-3-yl)benzofuran-2-yl)prop-2-yn-1-yl)-3-methylpicolinamide]
4 | > 80% | 1 to 9.9 nM | 100 to 999 nM | < 20% | [2H]C1COCCC1([2H])c1cc(N2CCCc3nc(-c4ccc(C(=O)NCC#Cc5cc6c(C7CCC(=O)NC7=O)cccc6o5)nc4)ncc32)c2cc(C)c(=O)n(C)c2c1 (stereo not drawn) [Example B23, 5-(5-(1,3-dimethyl-2-oxo-7-(tetrahydro-2H-pyran-4-yl-3,4-d2)-1,2-dihydroquinolin-5-yl)-5,6,7,8-tetrahydropyrido[3,2-d]pyrimidin-2-yl)-N-(3-(4-(2,6-dioxopiperidin-3-yl)benzofuran-2-yl)prop-2-yn-1-yl)picolinamide]
5 | > 80% | 1 to 9.9 nM | > 1000 nM | < 20% | COc1cc(-c2ncc3c(n2)CCCN3c2cc(C3CCOCC3)cc3c2cc(C)c(=O)n3C)cnc1C(=O)NCC#Cc1ccc2occ(C3CCC(=O)NC3=O)c2c1 (stereo not drawn) [Example B24, 5-(5-(1,3-dimethyl-2-oxo-7-(tetrahydro-2H-pyran-4-yl)-1,2-dihydroquinolin-5-yl)-5,6,7,8-tetrahydropyrido[3,2-d]pyrimidin-2-yl)-N-(3-(3-(2,6-dioxopiperidin-3-yl)benzofuran-5-yl)prop-2-yn-1-yl)-3-methoxypicolinamide]
6 | > 80% | 1 to 9.9 nM | 10 to 99 nM | 20 to 39% | CCN(CC)c1cc2c(cc(C)c(=O)n2C)c(N2CCCc3nc(-c4ccc(C(=O)NCC#Cc5cc6c(C7CCC(=O)NC7=O)nccc6o5)nc4)ncc32)n1 (stereo not drawn) [Example B25, 5-(5-(7-(diethylamino)-1,3-dimethyl-2-oxo-1,2-dihydro-1,6-naphthyridin-5-yl)-5,6,7,8-tetrahydropyrido[3,2-d]pyrimidin-2-yl)-N-(3-(4-(2,6-dioxopiperidin-3-yl)furo[3,2-c]pyridin-2-yl)prop-2-yn-1-yl)picolinamide]
7 | > 80% | 1 to 9.9 nM | > 1000 nM | < 20% | Cc1cc(-c2ncc3c(n2)CCCN3c2nc(N3CC4CCC(C3)O4)cc3c2cc(C)c(=O)n3C)cnc1C(=O)NCC#Cc1ccc2occ(C3CCC(=O)NC3=O)c2c1 (stereo not drawn) [Example B26, 5-(5-(7-(8-oxa-3-azabicyclo[3.2.1]octan-3-yl)-1,3-dimethyl-2-oxo-1,2-dihydro-1,6-naphthyridin-5-yl)-5,6,7,8-tetrahydropyrido [3,2-d]pyrimidin-2-yl)-N-(3-(3-(2,6-dioxopiperidin-3-yl)benzofuran-5-yl)prop-2-yn-1-yl)-3-methylpicolinamide]
8 | > 80% | 1 to 9.9 nM | 100 to 999 nM | < 20% | Cc1cc2c(N3CCCc4nc(-c5ccc(C(=O)NCC#Cc6cc7c(C8CCC(=O)NC8=O)cccc7o6)nc5)ncc43)nc(N3CCOCC3)cc2n(C)c1=O (stereo not drawn) [Example B28, 5-(5-(1,3-dimethyl-7-morpholino-2-oxo-1,2-dihydro-1,6-naphthyridin-5-yl)-5,6,7,8-tetrahydropyrido[3,2-d]pyrimidin-2-yl)-N-(3-(4-(2,6-dioxopiperidin-3-yl)benzofuran-2-yl)prop-2-yn-1-yl)picolinamide]
9 | > 80% | < 1 nM | 100 to 999 nM | < 20% | Cc1cc2c(N3CCCc4nc(-c5ccc(C(=O)NCC#Cc6cc7c([C@H]8CCC(=O)NC8=O)cccc7o6)nc5)ncc43)nc(N3CCOCC3)cc2n(C)c1=O [Example B29, (R)-5-(5-(1,3-dimethyl-7-morpholino-2-oxo-1,2-dihydro-1,6-naphthyridin-5-yl)-5,6,7,8-tetrahydropyrido[3,2-d]pyrimidin-2-yl)-N-(3-(4-(2,6-dioxopiperidin-3-yl)benzofuran-2-yl)prop-2-yn-1-yl)picolinamide]
10 | > 80% | < 1 nM | 1 to 9.9 nM | 60 to 79% | Cc1cc2c(N3CCN(C)c4nc(-c5ccc(C(=O)NCC#Cc6cc7c(C8CCC(=O)NC8=O)nccc7o6)nc5)ncc43)cccc2n(C)c1=O (stereo not drawn) [Example B32, 5-(5-(1,3-dimethyl-2-oxo-1,2-dihydroquinolin-5-yl)-8-methyl-5,6,7,8-tetrahydropteridin-2-yl)-N-(3-(4-(2,6-dioxopiperidin-3-yl)furo[3,2-c]pyridin-2-yl)prop-2-yn-1-yl)picolinamide]
11 | > 80% | 1 to 9.9 nM | 10 to 99 nM | 20 to 39% | Cc1cc2c(N3CCCc4nc(-c5ccc(C(=O)NCC#Cc6cc7c(C8CCC(=O)NC8=O)nccc7o6)nc5)ncc43)nc(N3CCC3)cc2n(C)c1=O (stereo not drawn) [Example B35, 5-(5-(7-(azetidin-1-yl)-1,3-dimethyl-2-oxo-1,2-dihydro-1,6-naphthyridin-5-yl)-5,6,7,8-tetrahydropyrido[3,2-d]pyrimidin-2-yl)-N-(3-(4-(2,6-dioxopiperidin-3-yl)furo[3,2-c]pyridin-2-yl)prop-2-yn-1-yl)picolinamide]
12 | > 80% | < 1 nM | > 1000 nM | < 20% | Cc1cc2c(N3CCCc4nc(-c5ccc(C(=O)NCC#Cc6cc7c([C@H]8CCC(=O)NC8=O)cccc7o6)nc5)ncc43)cc(C3CCOCC3)cc2n(C)c1=O [Example B38, (R)-5-(5-(1,3-dimethyl-2-oxo-7-(tetrahydro-2H-pyran-4-yl)-1,2-dihydroquinolin-5-yl)-5,6,7,8-tetrahydropyrido[3,2-d]pyrimidin-2-yl)-N-(3-(4-(2,6-dioxopiperidin-3-yl)benzofuran-2-yl)prop-2-yn-1-yl)picolinamide]

Source: patent US20250114345A1, “COMPOUNDS AND COMPOSITIONS AS CBP/P300 DEGRADERS AND USES THEREOF” (Oncopia Therapeutics, Inc. d/b/a/ SK Life Science Labs, priority 2023, published 2025)
